Results: ChEMBL document CHEMBL1201862, “PubChem BioAssay data set” (2004)
Active and inactive are the calls of the source.

What was measured:
Mu-type opioid receptor = Mu-type opioid receptor (Homo sapiens, UniProt P35372); format: functional, cell-based;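 note: U2OS cells with beta-arrestin recruitment to OPRM1 by beta-gal complementation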
[1] = molecular target: 5-hydroxytryptamine receptor 2A (Mus musculus, UniProt P35363); format: functional, cell-based;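 note: CHO-K1 cells with tagged receptor and beta-arrestin; agonist potency measured as compound-induced activation of the receptor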
[2] = molecular target: Voltage-gated inwardly rectifying potassium channel KCNH2 (Homo sapiens, UniProt Q12809); conditions: Potency;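 note: confirmatory quantitative high-throughput screen measuring inhibition of hERG channel activity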
Fatty acid synthase [3] = molecular target: T1, Fatty acid synthase (Homo sapiens, UniProt P49327); test: FAS thioesterase domain inhibitors, dose response, biochemical, kinetic fluorescence intensity (AID 624326); format: functional;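 note: rate of fluorescence rise from hydrolysis of a fluorogenic O-methyl fluorescein ester substrate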
Fatty acid synthase [4] = molecular target: T1, Fatty acid synthase; test: FAS thioesterase domain inhibitors, dose response, biochemical, endpoint fluorescence intensity, uHTS hits (AID 624327); format: functional;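 note: fluorescence from hydrolysis of an O-methyl fluorescein acyl ester substrate by the enzyme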
[5] = molecular target: Palmitoyl-protein thioesterase ABHD10, mitochondrial (Mus musculus, UniProt Q6PE15); test: Late stage assay provider results from the probe development effort to identify inhibitors of PME-1: fluorescence-based dose response biochemical gel-based competitive Activity-Based Protein Profiling (ABPP) inhibition of ABHD10 Set 2.; format: functional
[6] = molecular target: T2, Corticotropin-releasing factor receptor 2/Corticotropin-releasing factor-binding protein (Homo sapiens, UniProt P24387+Q13324); test: Dose Response confirmation of uHTS hits for small molecule antagonists of the CRF-binding protein and CRF-R2 receptor complex.; format: functional; conditions: read-out: IC50_Mean
T2 sequence (Q13324 whole entry): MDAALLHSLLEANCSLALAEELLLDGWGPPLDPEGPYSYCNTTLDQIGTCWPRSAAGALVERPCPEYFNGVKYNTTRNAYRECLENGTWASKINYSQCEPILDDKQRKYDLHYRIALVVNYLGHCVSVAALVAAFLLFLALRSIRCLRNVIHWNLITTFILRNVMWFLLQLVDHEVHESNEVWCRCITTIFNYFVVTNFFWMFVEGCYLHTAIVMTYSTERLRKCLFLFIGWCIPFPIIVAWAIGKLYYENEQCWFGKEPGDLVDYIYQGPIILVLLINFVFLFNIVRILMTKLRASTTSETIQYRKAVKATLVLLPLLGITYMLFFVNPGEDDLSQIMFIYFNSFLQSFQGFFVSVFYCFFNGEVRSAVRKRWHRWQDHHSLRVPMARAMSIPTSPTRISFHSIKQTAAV
T2 sequence (P24387 whole entry): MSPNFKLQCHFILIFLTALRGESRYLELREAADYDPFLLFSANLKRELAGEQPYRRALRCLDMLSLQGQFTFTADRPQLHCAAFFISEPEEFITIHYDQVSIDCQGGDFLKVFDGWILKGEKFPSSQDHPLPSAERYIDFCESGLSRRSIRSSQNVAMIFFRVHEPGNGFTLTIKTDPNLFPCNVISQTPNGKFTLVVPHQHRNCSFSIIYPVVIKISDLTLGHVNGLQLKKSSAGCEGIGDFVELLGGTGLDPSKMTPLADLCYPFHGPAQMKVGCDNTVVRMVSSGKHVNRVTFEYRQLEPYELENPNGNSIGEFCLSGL

[7] = CRF-BP/CRF-R2 complex antagonists, dose response, cell-based, uHTS hits, 384-well (AID 651639); format: functional, Homo sapiens; conditions: read-out: IC50_Mean
[8] = molecular target: T2, Corticotropin-releasing factor receptor 2/Corticotropin-releasing factor-binding protein; test: activators of CRF receptor 2 with binding protein – uHTS hits, confirmation (AID 602473); format: functional; conditions: read-out: EC50_Mean
Insulin-degrading enzyme [9] = molecular target: T3, Insulin-degrading enzyme (Homo sapiens, UniProt P14735); test: activators of endogenous IDE in HEK cells, dose response, cell-based, fluorescence polarization (AID 588439); format: functional
T3 sequence (P14735 whole entry): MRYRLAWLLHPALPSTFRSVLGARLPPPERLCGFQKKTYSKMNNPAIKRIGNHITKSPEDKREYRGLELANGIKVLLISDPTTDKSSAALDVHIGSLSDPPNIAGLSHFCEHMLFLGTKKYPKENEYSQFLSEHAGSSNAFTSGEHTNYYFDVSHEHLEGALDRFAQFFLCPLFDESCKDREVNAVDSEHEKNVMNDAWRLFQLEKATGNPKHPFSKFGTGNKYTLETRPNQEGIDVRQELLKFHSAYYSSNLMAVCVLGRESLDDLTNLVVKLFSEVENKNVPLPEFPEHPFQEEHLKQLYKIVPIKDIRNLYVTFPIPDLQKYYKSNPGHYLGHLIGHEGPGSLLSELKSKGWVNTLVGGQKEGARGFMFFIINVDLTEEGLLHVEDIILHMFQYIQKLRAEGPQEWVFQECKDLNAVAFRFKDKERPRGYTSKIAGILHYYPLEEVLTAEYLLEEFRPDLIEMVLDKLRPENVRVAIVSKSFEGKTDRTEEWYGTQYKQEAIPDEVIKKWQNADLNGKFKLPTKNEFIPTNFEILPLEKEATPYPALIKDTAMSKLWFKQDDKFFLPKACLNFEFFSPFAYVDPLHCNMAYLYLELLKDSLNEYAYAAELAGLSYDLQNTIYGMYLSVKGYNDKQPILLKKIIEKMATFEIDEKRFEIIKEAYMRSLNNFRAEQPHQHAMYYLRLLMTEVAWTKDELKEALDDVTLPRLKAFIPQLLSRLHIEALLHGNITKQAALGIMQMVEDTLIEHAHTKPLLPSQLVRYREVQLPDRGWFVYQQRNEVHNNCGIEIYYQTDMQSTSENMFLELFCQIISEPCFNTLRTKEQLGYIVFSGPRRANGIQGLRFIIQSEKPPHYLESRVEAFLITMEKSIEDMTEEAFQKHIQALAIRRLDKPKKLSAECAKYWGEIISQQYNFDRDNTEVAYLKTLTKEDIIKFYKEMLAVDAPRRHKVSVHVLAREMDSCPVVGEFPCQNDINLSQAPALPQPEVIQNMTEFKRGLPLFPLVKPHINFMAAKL

Beta-lactamase [10] = molecular target: Beta-lactamase (Salmonella choleraesuis (strain SC-B67), UniProt Q5J463)
Beta-lactamase [11] = molecular target: Beta-lactamase (Pseudomonas aeruginosa, UniProt Q79MP6);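 note: biochemical dose-response test of metallo-beta-lactamase enzyme inhibition, read out by epi-absorbance; purified recombinant IMP-1 metallo-beta-lactamase with nitrocefin as substrate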
HEK293 [12] = test: HEK cell cytotoxicity by LDH release, dose response, cytotoxicity control for IDE activator project, fluorescence, HEK cells (AID 588440); format: functional, cell-based; conditions: Homo sapiens;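 note: cytotoxicity by LDH release measuring loss of membrane integrity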
Insulin-degrading enzyme [13] = molecular target: T3, Insulin-degrading enzyme; test: activators of recombinant IDE enzyme, dose response, counter-screen for IDE activator project, biochemical, fluorescence polarization (AID 588681)
HEK293 [14] = test: optical interference in Abeta FP readout, dose response, artefact control for IDE activator project, biochemical, fluorescence polarization (AID 588442); format: functional, cell-based; conditions: Homo sapiens

T1 sequence (P49327 whole entry, the tested form may be a part): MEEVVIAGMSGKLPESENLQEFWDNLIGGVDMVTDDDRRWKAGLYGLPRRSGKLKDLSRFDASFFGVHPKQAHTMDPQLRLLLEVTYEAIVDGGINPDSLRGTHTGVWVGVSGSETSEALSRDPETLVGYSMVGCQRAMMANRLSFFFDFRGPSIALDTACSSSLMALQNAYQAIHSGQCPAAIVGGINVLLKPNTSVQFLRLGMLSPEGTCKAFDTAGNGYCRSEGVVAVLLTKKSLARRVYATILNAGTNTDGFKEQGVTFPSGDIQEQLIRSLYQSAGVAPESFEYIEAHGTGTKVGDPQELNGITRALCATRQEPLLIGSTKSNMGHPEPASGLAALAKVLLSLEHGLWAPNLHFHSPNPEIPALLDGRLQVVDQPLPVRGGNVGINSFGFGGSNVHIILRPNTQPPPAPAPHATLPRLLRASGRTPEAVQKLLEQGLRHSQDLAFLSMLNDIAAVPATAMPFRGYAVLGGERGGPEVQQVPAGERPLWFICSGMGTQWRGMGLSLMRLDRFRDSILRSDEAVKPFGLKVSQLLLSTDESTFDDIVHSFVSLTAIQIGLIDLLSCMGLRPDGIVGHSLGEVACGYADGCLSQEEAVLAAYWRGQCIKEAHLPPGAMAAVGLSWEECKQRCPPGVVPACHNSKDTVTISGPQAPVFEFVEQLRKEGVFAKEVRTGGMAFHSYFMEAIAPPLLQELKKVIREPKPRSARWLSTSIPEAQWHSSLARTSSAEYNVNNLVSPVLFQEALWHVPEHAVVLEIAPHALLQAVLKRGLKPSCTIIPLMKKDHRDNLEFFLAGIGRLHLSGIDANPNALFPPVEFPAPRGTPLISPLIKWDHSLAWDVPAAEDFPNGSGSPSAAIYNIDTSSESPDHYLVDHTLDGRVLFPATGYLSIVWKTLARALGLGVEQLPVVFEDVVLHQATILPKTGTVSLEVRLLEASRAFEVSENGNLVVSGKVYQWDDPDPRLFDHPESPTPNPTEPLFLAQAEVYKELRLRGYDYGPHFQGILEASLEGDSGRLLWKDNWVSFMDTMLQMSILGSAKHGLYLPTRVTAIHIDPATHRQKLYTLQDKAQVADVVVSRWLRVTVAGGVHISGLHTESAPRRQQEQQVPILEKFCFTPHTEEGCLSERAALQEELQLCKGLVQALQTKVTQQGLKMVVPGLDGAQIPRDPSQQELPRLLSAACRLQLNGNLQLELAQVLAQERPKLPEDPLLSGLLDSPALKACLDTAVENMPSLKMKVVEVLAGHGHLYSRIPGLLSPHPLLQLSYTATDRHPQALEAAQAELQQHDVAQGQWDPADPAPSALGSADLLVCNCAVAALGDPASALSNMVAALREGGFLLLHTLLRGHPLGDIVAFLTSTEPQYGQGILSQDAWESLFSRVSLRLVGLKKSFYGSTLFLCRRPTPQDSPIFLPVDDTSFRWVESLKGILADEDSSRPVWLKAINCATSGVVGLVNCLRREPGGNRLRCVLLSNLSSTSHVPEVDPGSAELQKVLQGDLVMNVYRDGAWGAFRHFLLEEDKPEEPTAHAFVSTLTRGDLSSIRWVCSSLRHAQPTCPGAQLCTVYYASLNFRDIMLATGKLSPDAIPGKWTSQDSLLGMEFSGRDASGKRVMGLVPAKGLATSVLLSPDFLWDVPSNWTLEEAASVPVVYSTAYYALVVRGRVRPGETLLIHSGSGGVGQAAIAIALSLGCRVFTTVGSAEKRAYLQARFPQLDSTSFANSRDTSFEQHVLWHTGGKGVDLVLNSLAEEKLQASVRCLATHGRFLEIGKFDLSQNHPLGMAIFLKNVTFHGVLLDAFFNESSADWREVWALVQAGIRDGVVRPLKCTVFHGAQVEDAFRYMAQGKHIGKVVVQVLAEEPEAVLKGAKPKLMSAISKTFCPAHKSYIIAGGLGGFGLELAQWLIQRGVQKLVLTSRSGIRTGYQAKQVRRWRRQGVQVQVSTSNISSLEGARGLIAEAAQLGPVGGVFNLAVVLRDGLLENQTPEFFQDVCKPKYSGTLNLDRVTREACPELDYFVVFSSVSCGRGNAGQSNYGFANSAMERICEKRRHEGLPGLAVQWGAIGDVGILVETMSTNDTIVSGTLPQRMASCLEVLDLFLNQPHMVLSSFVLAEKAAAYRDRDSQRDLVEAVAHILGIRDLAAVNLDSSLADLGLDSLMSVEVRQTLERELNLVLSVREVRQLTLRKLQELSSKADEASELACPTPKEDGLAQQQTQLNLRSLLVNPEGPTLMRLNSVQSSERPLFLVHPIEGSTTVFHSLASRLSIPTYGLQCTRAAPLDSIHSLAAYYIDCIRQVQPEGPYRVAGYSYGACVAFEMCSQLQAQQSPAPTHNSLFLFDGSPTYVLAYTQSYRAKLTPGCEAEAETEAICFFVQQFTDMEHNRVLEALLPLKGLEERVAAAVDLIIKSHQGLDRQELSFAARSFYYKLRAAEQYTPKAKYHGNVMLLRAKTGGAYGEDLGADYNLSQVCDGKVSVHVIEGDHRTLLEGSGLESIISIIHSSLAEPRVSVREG
Sequence of Beta-lactamase (Pseudomonas aeruginosa, UniProt Q79MP6) (Q79MP6 whole entry): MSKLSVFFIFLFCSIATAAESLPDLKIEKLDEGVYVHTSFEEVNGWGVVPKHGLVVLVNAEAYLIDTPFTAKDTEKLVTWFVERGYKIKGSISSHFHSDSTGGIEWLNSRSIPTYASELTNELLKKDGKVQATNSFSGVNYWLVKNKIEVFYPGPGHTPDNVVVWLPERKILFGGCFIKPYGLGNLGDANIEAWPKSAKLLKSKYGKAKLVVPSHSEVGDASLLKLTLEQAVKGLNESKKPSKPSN
Sequence of Voltage-gated inwardly rectifying potassium channel KCNH2 (Q12809 whole entry, the tested form may be a part): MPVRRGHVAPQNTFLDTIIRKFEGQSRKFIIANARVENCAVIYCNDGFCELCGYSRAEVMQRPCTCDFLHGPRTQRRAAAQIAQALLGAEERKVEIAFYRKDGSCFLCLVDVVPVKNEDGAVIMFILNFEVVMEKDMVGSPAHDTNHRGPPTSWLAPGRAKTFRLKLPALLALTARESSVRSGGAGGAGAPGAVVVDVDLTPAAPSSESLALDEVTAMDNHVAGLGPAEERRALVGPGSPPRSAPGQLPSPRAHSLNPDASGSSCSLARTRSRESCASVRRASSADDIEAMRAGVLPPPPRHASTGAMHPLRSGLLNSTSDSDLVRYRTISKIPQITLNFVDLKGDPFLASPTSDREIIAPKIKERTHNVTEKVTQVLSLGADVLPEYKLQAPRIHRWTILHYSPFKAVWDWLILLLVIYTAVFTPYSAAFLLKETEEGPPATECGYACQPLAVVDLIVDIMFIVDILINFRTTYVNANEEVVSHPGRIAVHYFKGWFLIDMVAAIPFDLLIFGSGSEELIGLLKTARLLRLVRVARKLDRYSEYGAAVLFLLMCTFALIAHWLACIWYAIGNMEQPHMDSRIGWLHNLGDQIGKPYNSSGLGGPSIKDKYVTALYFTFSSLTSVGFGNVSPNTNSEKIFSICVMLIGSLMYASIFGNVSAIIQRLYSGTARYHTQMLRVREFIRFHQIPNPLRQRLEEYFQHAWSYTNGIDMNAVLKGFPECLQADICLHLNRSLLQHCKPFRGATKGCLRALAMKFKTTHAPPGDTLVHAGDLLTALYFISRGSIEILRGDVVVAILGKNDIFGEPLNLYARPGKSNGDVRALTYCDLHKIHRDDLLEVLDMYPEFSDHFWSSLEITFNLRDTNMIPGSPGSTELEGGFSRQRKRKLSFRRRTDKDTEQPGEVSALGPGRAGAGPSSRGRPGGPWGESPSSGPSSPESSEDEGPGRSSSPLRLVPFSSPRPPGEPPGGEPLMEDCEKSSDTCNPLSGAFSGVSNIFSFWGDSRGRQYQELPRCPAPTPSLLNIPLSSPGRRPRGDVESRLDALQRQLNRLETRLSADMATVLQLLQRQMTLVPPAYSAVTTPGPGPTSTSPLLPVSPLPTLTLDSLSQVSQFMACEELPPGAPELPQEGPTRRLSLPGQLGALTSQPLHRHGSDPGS
Sequence of 5-hydroxytryptamine receptor 2A (P35363 whole entry): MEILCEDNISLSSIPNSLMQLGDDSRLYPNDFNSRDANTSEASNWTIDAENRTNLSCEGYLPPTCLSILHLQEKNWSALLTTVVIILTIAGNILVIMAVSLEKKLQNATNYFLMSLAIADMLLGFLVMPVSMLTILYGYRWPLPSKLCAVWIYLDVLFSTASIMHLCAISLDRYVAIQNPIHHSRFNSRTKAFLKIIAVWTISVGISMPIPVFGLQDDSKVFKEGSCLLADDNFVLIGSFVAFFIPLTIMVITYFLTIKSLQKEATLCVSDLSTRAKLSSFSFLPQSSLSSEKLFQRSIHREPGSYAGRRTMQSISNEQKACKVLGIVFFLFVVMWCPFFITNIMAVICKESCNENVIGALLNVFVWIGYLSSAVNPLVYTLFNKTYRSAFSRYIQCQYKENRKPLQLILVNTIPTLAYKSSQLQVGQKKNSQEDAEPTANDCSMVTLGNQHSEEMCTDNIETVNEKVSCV
Sequence of Mu-type opioid receptor (P35372 whole entry): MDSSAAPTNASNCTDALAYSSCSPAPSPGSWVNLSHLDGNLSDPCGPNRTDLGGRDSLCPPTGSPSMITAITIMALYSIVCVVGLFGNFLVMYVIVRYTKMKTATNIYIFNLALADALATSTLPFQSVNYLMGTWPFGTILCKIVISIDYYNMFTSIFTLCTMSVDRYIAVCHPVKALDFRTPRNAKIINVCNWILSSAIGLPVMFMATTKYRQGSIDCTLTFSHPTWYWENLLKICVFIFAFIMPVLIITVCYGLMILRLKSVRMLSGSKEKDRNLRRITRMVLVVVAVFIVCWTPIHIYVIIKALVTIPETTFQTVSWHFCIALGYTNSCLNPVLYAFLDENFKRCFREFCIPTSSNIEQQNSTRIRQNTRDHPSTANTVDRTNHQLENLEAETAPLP
Sequence of Beta-lactamase (Salmonella choleraesuis (strain SC-B67), UniProt Q5J463) (Q5J463 whole entry): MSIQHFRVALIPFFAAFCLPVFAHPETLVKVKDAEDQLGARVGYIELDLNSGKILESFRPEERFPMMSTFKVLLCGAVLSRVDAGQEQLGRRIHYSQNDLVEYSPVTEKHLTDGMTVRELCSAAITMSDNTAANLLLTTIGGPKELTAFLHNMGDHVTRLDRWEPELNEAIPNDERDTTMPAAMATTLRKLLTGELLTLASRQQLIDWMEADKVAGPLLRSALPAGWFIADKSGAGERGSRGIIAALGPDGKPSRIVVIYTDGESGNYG

SMILES: CN1CCc2cc(O)c(O)cc2C(c2ccccc2)C1 (stereo not given)
- EC50 (Mu-type opioid receptor): 92.5 µM (inactive)
- EC50 [1]: 1.36 µM (active)
- AC50 [2]: 35.5 µM (inconclusive)

SMILES: CC[C@@]1(c2cccc(C)c2)C(=O)N(C(=O)OC)N1C(=O)OC
- IC50 (Fatty acid synthase [3]): 5.96 µM (active)
- IC50 (Fatty acid synthase [4]): 6.22 µM (active)
- IC50 [5]: 0.413 µM (active)

SMILES: CCOc1cc(-c2cn(S(=O)(=O)c3cccc4nsnc34)nc2N)cc(OCC)c1OCC
- IC50 [6]: 21.1 µM (active)
- IC50 [7]: > 20 µM (inactive)
- EC50 [8]: > 53 µM (inactive)

SMILES: N#CC(C#N)=C1C=C2C=C(N3CCCCCC3)CCC2CC1 (stereo not given)
- EC50 (Insulin-degrading enzyme [9]): > 54.7 µM (inactive)
- IC50 (Beta-lactamase [10]): 1.04 µM (active)
- IC50 (Beta-lactamase [11]): 2.78 µM (active)
- IC50 (HEK293 [12]): > 89.1 µM (inactive)
- EC50 (Insulin-degrading enzyme [13]): > 54.7 µM (inactive)
- EC50 (HEK293 [14]): > 54.7 µM (inactive)
